# Experimental data as given in patent publication US20100233158A1, “INDUCTION OF IMMUNE TOLERANCE” (Genzyme Corporation, priority 2002, published 2010).
# Test system: cardiac allograft rejection
# Experiment: Heart transplant rejection mouse model (C57/BL6 heart into Balb/c recipient, total MHC mismatch)
# Format: in vivo, mice
# Conditions: Compound 1 alone, 75 mg/kg/day for fourteen days following surgery; untreated controls rejected after ten days; p<0.001
# Experimental: The ability of a combination therapy of rapamycin and Compound 1 to inhibit transplant rejection in a mouse model was tested. […] Following surgery, the mice were divided into the following treatment groups: • Group I is a control group that was untreated. • Group II was treated with Compound 1 at a dose of 75 mg/kg/day subcutaneously for fourteen days following surgery. • Group III was treated with rapamycin at a dose of 0.3 mg/kg/day intraperitoneally for three days following surgery. • Group IV was treated with Compound 1 at a dose of 75 mg/kg/day intraperitoneally for fourteen days following surgery and with rapamycin at a dose of 0.3 mg/kg/day intraperitoneally for three days following surgery.
structure (smiles),measurement,value
N#Cc1cccc(C(C(=O)NCC(c2ccccc2)c2ccccc2)N(CCc2c[nH]cn2)C(=O)c2ccccc2C(=O)c2ccccc2)c1 (stereo not shown) [Compound 1],delay in the onset of rejection,two to three
